In ChEMBL document CHEMBL1141393 (J Med Chem, 2007):
Values after ≈ are worked out from the molar mass of the structure shown.

Assays:
Plasmodium falciparum [1] = assay: Antiplasmodial activity against chloroquine-sensitive Plasmodium falciparum 3D7; assay type: functional, organism-based
Plasmodium falciparum [2] = assay: Antiplasmodial activity against chloroquine-resistant Plasmodium falciparum K1; assay type: functional, organism-based
Plasmodium falciparum [3] = assay: Antiplasmodial activity against chloroquine-resistant Plasmodium falciparum W2; assay type: functional, organism-based
Plasmodium falciparum [4] = assay: Antiplasmodial activity against chloroquine-sensitive Plasmodium falciparum D10; assay type: functional, organism-based
Pichia kudriavzevii = assay: Antifungal activity against Candida krusei ATCC 6258; assay type: functional
Cryptococcus neoformans = assay: Antifungal activity against Cryptococcus neoformans; assay type: functional
Candida albicans = assay: Antifungal activity against Candida albicans; assay type: functional
Aspergillus fumigatus [5] = assay: Antifungal activity against Aspergillus fumigatus; assay type: functional
Candida parapsilosis = assay: Antifungal activity against Candida parapsilosis ATCC 22019; assay type: functional; details: Lodderomyces parapsilosis
Aspergillus flavus = assay: Antifungal activity against Aspergillus flavus ATCC 204304; assay type: functional
Aspergillus fumigatus [6] = assay: Antifungal activity against itraconazole resistant Aspergillus fumigatus; assay type: functional
Daudi = assay: Cytotoxicity against human Daudi cell line; assay type: cell-based
KB = assay: Cytotoxicity against human KB cell line; assay type: cell-based
[7] = Cytotoxicity against human lymphocytes; assay type: cell-based; details: Lymphocyte

| Structure (SMILES) | IC50 (Plasmodium falciparum [1]) | IC50 (Plasmodium falciparum [2]) | IC50 (Plasmodium falciparum [3]) | IC50 (Plasmodium falciparum [4]) | MIC (Pichia kudriavzevii) | MIC (Cryptococcus neoformans) | MIC (Candida albicans) | MIC (Aspergillus fumigatus [5]) | MIC (Candida parapsilosis) | MIC (Aspergillus flavus) | MIC (Aspergillus fumigatus [6]) | IC50 (Daudi) | IC50 (KB) | IC50 [7] |
| --- | --- | --- | --- | --- | --- | --- | --- | --- | --- | --- | --- | --- | --- | --- |
| N#CC(c1ccccc1)(c1ccc(Cl)cc1)c1ccc(CN2CCCC2)cc1 (racemic) | 5.07 µM | 2.64 µM | – | – | – | – | – | – | – | – | – | – | – | – |
| Clc1ccc(C(c2ccccc2)(c2ccc(CN3CCCC3)cc2)N2CCCC2)cc1 (racemic) | 0.94 µM | 1.99 µM | 2.57 µM | 4.81 µM | – | – | – | – | – | – | – | – | – | – |
| Clc1ccc(C(c2ccc(CN3CCCC3)cc2)n2ccnc2)cc1 (racemic) | 0.31 µM | 0.17 µM | 1.13 µM | 1.66 µM | > 32 µg/mL | > 32 µg/mL | > 32 µg/mL | > 32 µg/mL | > 32 µg/mL | > 32 µg/mL | – | – | – | – |
| CCN(CC)Cc1ccc(C(c2ccccc2Cl)n2cncn2)cc1 (racemic) | > 10 µM | 0.79 µM | > 10 µM | > 10 µM | – | – | – | – | – | – | – | – | – | – |
| COc1ccc(C(c2ccccc2)(c2ccc(CN3CCCC3)cc2)n2ccnc2)cc1 (racemic) | 8.13 µM | 5.93 µM | 1.84 µM | 2.04 µM | – | – | – | – | – | – | – | – | – | – |
| Clc1ccccc1C(c1ccccc1)(c1ccccc1)n1ccnc1 [CLOTRIMAZOLE] | – | – | – | – | 2 µg/mL (≈ 5.8 µM) | 2 µg/mL (≈ 5.8 µM) | 0.03 µg/mL (≈ 0.087 µM) | 4 µg/mL (≈ 11.6 µM) | 2 µg/mL (≈ 5.8 µM) | 4 µg/mL (≈ 11.6 µM) | 4 µg/mL (≈ 11.6 µM) | – | – | – |
| Clc1cccc(C(c2ccc(CN3CCCC3)cc2)n2ccnc2)c1 (racemic) | 0.11 µM | 0.2 µM | 1.03 µM | 1.42 µM | > 32 µg/mL | > 32 µg/mL | > 32 µg/mL | > 32 µg/mL | > 32 µg/mL | > 32 µg/mL | – | – | – | – |
| Clc1ccccc1C(CNCN1CCCC1)n1ccnc1 (racemic) | 2.61 µM | 0.92 µM | 3.05 µM | 9.43 µM | – | – | – | – | – | – | – | – | – | – |
| Clc1ccc(C(c2ccccc2)(c2ccc(CN3CCCC3)cc2)n2cncn2)cc1 (racemic) | 8.91 µM | 2.15 µM | 3.83 µM | 6.92 µM | – | – | – | – | – | – | – | – | – | – |
| Clc1ccccc1C(c1ccc(CN2CCCC2)cc1)n1ccnc1 (racemic) | 0.011 µM | 0.11 µM | 1.7 µM | 2.18 µM | > 32 µg/mL | > 32 µg/mL | > 32 µg/mL | > 32 µg/mL | > 32 µg/mL | > 32 µg/mL | – | – | – | – |
| Clc1ccc(C(Cn2ccnc2)(c2ccccc2)c2ccc(CN3CCCC3)cc2)cc1 (racemic) | 0.75 µM | 0.52 µM | – | – | – | – | – | – | – | – | – | – | – | – |
| CCN(CC)CCCNCC(c1ccccc1Cl)n1ccnc1 (racemic) | 1.9 µM | 3.08 µM | 4.46 µM | 6.41 µM | – | – | – | – | – | – | – | – | – | – |
| Clc1ccc(C(c2ccccc2)(c2ccc(CN3CCCC3)cc2)n2ccnc2)cc1 (racemic) | – | – | – | – | 16 µg/mL (≈ 37.4 µM) | > 32 µg/mL | 32 µg/mL (≈ 74.8 µM) | > 32 µg/mL | 32 µg/mL (≈ 74.8 µM) | > 32 µg/mL | – | 58 µM | 70 µM | 70 µM |
| Clc1cccc(C(c2ccccc2)(c2ccc(CN3CCCC3)cc2)n2ccnc2)c1 (racemic) | 0.047 µM | 0.023 µM | 0.1 µM | 0.23 µM | – | – | – | – | – | – | – | – | – | – |
| OC(c1ccccc1)(c1ccc(Cl)cc1)c1ccc(CN2CCCC2)cc1 (racemic) | > 10 µM | 2.17 µM | – | 8.3 µM | – | – | – | – | – | – | – | – | – | – |
